The target in this assay is T1, Cystic fibrosis transmembrane conductance regulator [1-507,509-1480] (Human, UniProt P13569, DEL508-508).
T1 construct: 1-507,509-1480
Nature of the assay: Chamber Assay of CFTR-mediated short-circuit currents. How it is done:
ssing chamber experiments were performed using human bronchial epithelial (HBE) cells derived from CF subjects heterozygous for F508del and a minimal function CFTR mutation (F508del/MF-HBE) and cultured as previously described (Neuberger T, Burton B, Clark H, Van Goor F Methods Mol Biol 2011:741:39-54). After four days the apical media was removed, and the cells were grown at an air liquid interface for >14 days prior to use. […] To isolate the CFTR-mediated short-circuit (ISC) current, F508del/MF-HBE grown on Costar Snapwell cell culture inserts were mounted in an Ussing chamber and the transepithelial ISC was measured under voltage-clamp recording conditions (Vhold= 0 mV) at 37 °C. The basolateral solution contained (in mM) 145 NaCl, 0.83 K2HPO4, 3.3 KH2PO4, 1.2 MgCl2, 1.2 CaCl2, 10 Glucose, 10 HEPES (pH adjusted to 7.4 with NaOH) and the apical solution contained (in mM) 145 NaGluconate, 1.2 MgCl2, 1.2 CaCl2, 10 glucose, 10 HEPES (pH adjusted to 7.4 with NaOH) and 30 µM amiloride to block the epithelial sodium channel. Forskolin (20 µM) was added to the apical surface to activate CFTR, followed by apical addition of a CFTR inhibitor cocktail consisting of BPO, GlyH-101 and CFTR inhibitor 172 (each at 20 µM final assay concentration) to specifically isolate CFTR currents. The CFTR-mediated ISC (µA/cm2) for each condition was determined from the peak forskolin response to the steady-state current following inhibition.

Each structure is given as a SMILES string.

T1 sequence (P13569 as listed by the source): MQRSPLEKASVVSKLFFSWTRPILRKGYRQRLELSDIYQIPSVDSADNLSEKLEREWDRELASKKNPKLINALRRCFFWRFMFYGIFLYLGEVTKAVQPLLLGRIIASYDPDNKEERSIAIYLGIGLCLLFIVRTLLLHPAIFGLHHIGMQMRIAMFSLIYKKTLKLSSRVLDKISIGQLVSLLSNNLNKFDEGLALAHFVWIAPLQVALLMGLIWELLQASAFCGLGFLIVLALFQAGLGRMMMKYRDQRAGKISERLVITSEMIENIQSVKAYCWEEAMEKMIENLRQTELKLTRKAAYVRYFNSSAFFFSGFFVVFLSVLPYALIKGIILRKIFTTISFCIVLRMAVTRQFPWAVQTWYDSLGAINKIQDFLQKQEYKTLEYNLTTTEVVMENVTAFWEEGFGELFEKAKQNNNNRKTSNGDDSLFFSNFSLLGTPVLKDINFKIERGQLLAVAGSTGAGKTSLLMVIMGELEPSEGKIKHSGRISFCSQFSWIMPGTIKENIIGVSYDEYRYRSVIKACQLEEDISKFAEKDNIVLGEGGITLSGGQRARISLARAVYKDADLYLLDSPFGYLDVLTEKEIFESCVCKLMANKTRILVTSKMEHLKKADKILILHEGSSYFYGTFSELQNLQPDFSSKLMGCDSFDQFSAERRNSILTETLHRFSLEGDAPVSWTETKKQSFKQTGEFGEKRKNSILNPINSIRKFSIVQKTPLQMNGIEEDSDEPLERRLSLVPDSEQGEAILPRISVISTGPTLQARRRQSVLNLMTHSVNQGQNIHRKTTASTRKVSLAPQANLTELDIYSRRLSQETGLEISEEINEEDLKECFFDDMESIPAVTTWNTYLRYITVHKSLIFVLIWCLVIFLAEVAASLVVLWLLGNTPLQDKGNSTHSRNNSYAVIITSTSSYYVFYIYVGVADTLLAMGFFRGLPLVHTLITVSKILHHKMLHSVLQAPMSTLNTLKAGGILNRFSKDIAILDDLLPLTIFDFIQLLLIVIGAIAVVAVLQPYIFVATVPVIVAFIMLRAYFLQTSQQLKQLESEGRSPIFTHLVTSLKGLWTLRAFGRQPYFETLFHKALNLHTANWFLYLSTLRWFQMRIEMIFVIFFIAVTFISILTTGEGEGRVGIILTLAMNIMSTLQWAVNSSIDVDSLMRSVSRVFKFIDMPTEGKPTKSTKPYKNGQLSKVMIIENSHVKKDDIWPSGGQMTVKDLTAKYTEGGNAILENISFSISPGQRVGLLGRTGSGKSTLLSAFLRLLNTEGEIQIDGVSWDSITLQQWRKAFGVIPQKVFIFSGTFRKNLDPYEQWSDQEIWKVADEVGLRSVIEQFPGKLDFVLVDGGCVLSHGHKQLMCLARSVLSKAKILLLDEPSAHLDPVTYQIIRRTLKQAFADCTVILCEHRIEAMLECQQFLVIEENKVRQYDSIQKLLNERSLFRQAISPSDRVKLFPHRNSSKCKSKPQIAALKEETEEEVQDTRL

On to `CCNc1cc(C(F)(F)F)c2nc1-c1nnc(o1)[C@@](O)(C(F)(F)F)CCCCC[C@@H]1CCCN21` [WO2022109573, Compound 14], for which the EC50 was less than 500 nM. The value for `Nc1cc(C(F)(F)F)c2nc1-c1nnc(o1)[C@](O)(C(F)(F)F)CCCCCC[C@H]1CCCN21` [WO2022109573, Compound 25] was less than 500 nM.

Consider `Nc1cc(C(F)(F)F)c2nc1-c1nnc(o1)[C@@](O)(C(F)(F)F)CCCC[C@H]1CCCN21` [WO2022109573, Compound 18], for which the EC50 is less than 500 nM.

On to `Nc1cc(C(F)(F)F)c2nc1-c1nnc(o1)/C(=N\O)CCCCC[C@@H]1CCCN21` [WO2022109573, Compound 31], for which the EC50 is less than 500 nM. To `Nc1cc(C(F)(F)F)c2nc1-c1nnc(o1)[C@](O)(C(F)(F)F)CCCCC1CCN2C1` (stereo partly specified) [WO2022109573, Compound 9] belongs less than 500 nM; to `Nc1cc(C(F)(F)F)c2nc1-c1nnc(o1)C(=O)CCCCC[C@@H]1CCCN21` [WO2022109573, Compound 36], less than 500 nM.

Turning to `Nc1cc(C(F)(F)F)c2nc1-c1nnc(o1)C(O)(C(F)(F)F)CCCCCCN2CCO` (stereo unspecified) [WO2022109573, Compound 41], the EC50 was less than 500 nM. To `CN1CCCCCCC(O)(C(F)(F)F)C2=NN=C(O2)c2nc1c(C(F)(F)F)cc2N` (stereo unspecified) [WO2022109573, Compound 19] belongs less than 500 nM; to `Nc1cc(C(F)(F)F)c2nc1-c1nnc(o1)C(O)CCCCC[C@@H]1CCCN21` (stereo partly specified) [WO2022109573, Compound 21], less than 500 nM; to `CC1(O)CCCCC[C@@H]2CCCN2c2nc(c(N)cc2C(F)(F)F)C2=NN=C1O2` (stereo partly specified) [WO2022109573, Compound 45], less than 500 nM. `Nc1cc(C(F)(F)F)c2nc1-c1nnc(o1)[C@@](O)(C(F)(F)F)CCCC[C@@H]1CCCN21` [WO2022109573, Compound 17]: the EC50 is less than 500 nM. To `Nc1cc(C(F)(F)F)c2nc1-c1nnc(o1)C(O)(C(F)(F)F)CCCC[C@@H]1CCCN21` (stereo partly specified) [WO2022109573, Compound 32] belongs less than 500 nM; to `Nc1cc(C(F)(F)F)c2nc1-c1nnc(o1)[C@@](O)(C(F)(F)F)CCCCCC[C@H]1CCCN21` [WO2022109573, Compound 24], less than 500 nM; to `CC1(C)CC2CCCCCC(O)(C(F)(F)F)C3=NN=C(O3)c3nc(c(C(F)(F)F)cc3N)N2C1` (stereo unspecified) [WO2022109573, Compound 29], less than 500 nM. The value for `Nc1cc(C(F)(F)F)c2nc1-c1nnc(o1)C(O)(C(F)(F)F)CCCC(=O)N1CCN2CC1` (stereo unspecified) [WO2022109573, Compound 37] was less than 500 nM; that for `CNc1cc(C(F)(F)F)c2nc1-c1nnc(o1)[C@@](O)(C(F)(F)F)CCCCC[C@@H]1CCCN21` [WO2022109573, Compound 13] was less than 500 nM; that for `Nc1cc(C(F)(F)F)c2nc1-c1nnc(o1)[C@@](O)(C(F)(F)F)CCCCC1CCN2C1` (stereo partly specified) [WO2022109573, Compound 8] was less than 500 nM. The value for `Nc1cc(C(F)(F)F)c2nc1-c1nnc(o1)[C@](O)(C(F)(F)F)CCCCC[C@H]1CCCN21` [WO2022109573, Compound 7] was less than 500 nM; that for `Nc1cc(C(F)(F)F)c2nc1-c1nnc(o1)[C@@](O)(C(F)(F)F)CCCCCC[C@@H]1CCCN21` [WO2022109573, Compound 23] was less than 500 nM. The compound `CCOC(=O)CN1CCCCCCC(O)(C(F)(F)F)C2=NN=C(O2)c2nc1c(C(F)(F)F)cc2N` (stereo unspecified) [WO2022109573, Compound 46] registered an EC50 of less than 500 nM. The value for `Nc1cc(C(F)(F)F)c2nc1-c1nnc(o1)[C@](O)(C(F)(F)F)CCCCC[C@@H]1CCCN21` [WO2022109573, Compound 4] was less than 500 nM.

Usually EC50 stands for the concentration that produces a half-maximal response.
